Literature values in patent US7351421B2, “Drug-eluting stent having collagen drug carrier chemically treated with genipin” (priority 1996, dated 2008).
“Also recorded” adds a separate entry of the source.

What was measured:
[1] = tested on: intimal proliferative lesion; settings: in vivo
smooth muscle cell = settings: in vitro
intimal proliferation = settings: de-endothelialized rabbits, in vivo
[2] = glutaraldehyde used to crosslink materials
3T3 fibroblasts = settings: in vitro
CHO-K1 cells = settings: in vitro

cyclosporin A
effect on intimal proliferative lesion following arterial balloon catheterization [1]: inhibition
effect on smooth muscle cell proliferation (smooth muscle cell): did not inhibit
reduction of intimal proliferation (intimal proliferation): no significant reduction

O=CCCCC=O [glutaraldehyde]
concentration at which cytotoxic (tissue culture): 10-25 ppm
concentration at which cytotoxic in tissue culture (tissue culture; tissue culture, as low as): ≥ 3 ppm
crosslinking concentration giving persistent foreign-body reaction [2]: above 0.05%

COC(=O)C1=CO[C@@H](O)[C@@H]2C(CO)=CC[C@H]12 [Genipin]
LD50 i.v. (mice): 382 mg/k
cytotoxicity compared with glutaraldehyde (3T3 fibroblasts): substantially less cytotoxic; also recorded: significantly less cytotoxic
clastogenic response (genotoxicity) (CHO-K1 cells): does not cause clastogenic response
